US8258114B2, “Modulation of glucose-6-phosphatase translocase expression” (Isis Pharmaceuticals, Inc., priority 2004, dated 2012)

Columns and labels:
Assay type in all cases: in vivo, mouse
[1] = Liver triglycerides and glycogen stores in db/db mice (Table 8)
Description: (§1) Seven-week old male C57B1/6J-Lepr db/db mice (Jackson Laboratory, Bar Harbor, Me.) were fed a diet with a fat content of about 14% (Formulab Diet 5008) and were subcutaneously injected with ISIS 116847 (SEQ ID NO: 143), ISIS 141923 (SEQ ID NO: 144), or ISIS 148985 (SEQ ID NO: 118), an antisense inhibitor of glucose-6-phosphatase translocase, […] […] Saline-injected animals served as controls. 48 hours after the eighth and final dose was administered, mice were sacrificed and target levels were evaluated in liver. RNA isolation and target mRNA expression level quantitation were performed as described by other examples herein.
Patients with the human glycogen storage disease type 1b have mutations in the glucose-6-phosphatase translocase gene. Because one manifestation of these mutations is a defect in hepatic glycogen deposition, the db/db mice were further evaluated at the end of the treatment period for liver glycogen stores. Tissue glycogen levels were measured using the Glucose Trinder Reagent (Sigma-Aldrich, St. Louis, Mo.). Tissue triglyceride levels were measured using a Triglyceride GPO Assay from Roche Diagnostics (Indianapolis, Ind.). Liver triglyceride levels were used to assess hepatic steatosis, or accumulation of lipids in the liver. Hepatic steatosis was also assessed by routine histological analysis of frozen liver tissue sections stained with oil red 0 stain, which is commonly used to visualize lipid deposits, and counterstained with hematoxylin and eosin, to visualize nuclei and cytoplasm, respectively. Data are presented in Table 8 as the averages from 5 animals per treatment group.

db/db mice = test: Fed plasma glucose in db/db mice, dose-response study (Example 11)
Description: as §1
For seven animals per treatment group, plasma glucose was measured with routine clinical analyzer instruments (e.g. Olympus Clinical Analyzer). Data are expressed as averages per treatment group.

[2] = test system: glucose-6-phosphatase translocase mRNA; test: Target mRNA reduction in liver of db/db mice (Example 10); conditions: 25 mg/kg s.c. twice weekly, end of study
Description: Seven-week old male C57B1/6J-Lepr db/db mice (Jackson Laboratory, Bar Harbor, Me.) were fed a diet with a fat content of about 14% and were subcutaneously injected with one or more of the oligomeric compounds of the invention or a control compound at a dose of 25 mg/kg two times per week. Glucose-6-phosphatase translocase antisense oligonucleotides used were ISIS 148985 (SEQ ID NO: 118) and ISIS 149008 (SEQ ID NO: 141). ISIS 116847 (SEQ ID NO: 143), targeted to mouse PTEN, was used as a positive control. The scrambled control oligonucleotide ISIS 141923 ([…], incorporated herein as SEQ ID NO: 144) served as a negative control along with saline-injected animals. ISIS 141923 and ISIS 116847 are chimeric oligonucleotides (“gapmers”) 20 nucleotides in length, composed of a central “gap” region consisting of 10 2′-deoxynucleotides, which is flanked on both sides (5′ and 3′) by five-nucleotide “wings”. The wings are composed of 2′-O-(2-methoxyethyl) nucleotides, also known as 2′-MOE nucleotides. The internucleoside (backbone) linkages are phosphorothioate throughout the oligonucleotide. All cytidine residues are 5-methylcytidines.
48 hours after the final treatment, mice were sacrificed and target levels were evaluated in liver. RNA isolation and target mRNA expression level quantitation were performed as described by other examples herein.
Glucose-6-phosphatase translocase mRNA levels in db/db mouse livers were measured at the end of study using RIBOGREEN™ RNA quantification reagent (Molecular Probes, Inc. Eugene, Oreg.) as taught in previous examples above. Unless otherwise noted, data are expressed as the average percent inhibition from 5 animals per treatment group.

ob/ob mice [3] = test: Oral glucose tolerance test in ob/ob mice (Table 6); conditions: 25 mg/kg twice weekly; for plasma glucose, OGTT: after 6th dose
Description: The mice described in Example 7 were evaluated for performance on glucose tolerance tests after the 6th dose of saline or antisense oligonucleotides. Through measurement of glucose levels following the administration of a bolus of glucose, tolerance tests assess the physiological response to a glucose challenge.
Oral glucose tolerance tests (OGTT) were performed during the third week of treatment with saline, ISIS 116847 (targeted to PTEN, SEQ ID NO: 143), ISIS 148985 (SEQ ID NO: 118), or ISIS 149008 (SEQ ID NO: 141). To provide a baseline glucose level, fasted blood glucose levels were measured before the challenge. Glucose was administered by oral gavage via an 18 g gavage needle at a dose of 1 g/kg. Plasma glucose levels were measured for 30, 60, 90 and 120 minutes post-challenge using an Ascencia Glucometer Elite XL (Bayer, Tarrytown, N.Y.).
The results are presented in Table 6 as the average result (plasma glucose in mg/dL) from each treatment group (n=7). Saline-treated mice served as the control to which glucose levels were compared.

ob/ob mice [4] = test: Fed and fasted plasma glucose in ob/ob mice; conditions: 25 mg/kg s.c. twice weekly; for fasted plasma glucose: week 3, overnight fast, saline 297
Description: Seven-week old male C57B1/6J-Lep ob/ob mice (Jackson Laboratory, Bar Harbor, Me.) were fed a diet with a fat content of about 22% and were subcutaneously injected with oligonucleotides at a dose of 25 mg/kg two times per week. A total of eight doses were administered. Glucose-6-phosphatase translocase antisense oligonucleotides used were ISIS 148985 (SEQ ID NO: 118) and ISIS 149008 (SEQ ID NO: 141). ISIS 116847 ([…]; incorporated herein as SEQ ID NO: 143), targeted to mouse PTEN, was used as a positive control. Saline-injected animals served as negative controls. Animals were sacrificed 48 hours after the last dose of oligonucleotide was administered, and liver triglycerides, liver glycogen, and target reduction in liver were measured.
The effects of target inhibition on glucose metabolism were evaluated in the ob/ob mice treated as described above. Routine clinical analyzer instruments (Olympus Clinical Analyzer, Melville, N.Y.) were used to measure plasma glucose. Plasma glucose was measured prior to antisense oligonucleotide treatment (week 0) and during the second and fourth week of treatment. Fasted glucose measurements were made during week 3 after an overnight (about 14 hours) fast. Data are presented as the average from seven animals per treatment group.

[5] = 25 mg/kg twice weekly 4 weeks (25 mg/mL [sic]), saline 25
[6] = 25 mg/kg twice weekly 4 weeks (25 mg/mL [sic]), saline 47
[7] = 25 mg/kg twice weekly, week 0, saline 280
[8] = 25 mg/kg twice weekly, week 2, saline 517
[9] = 25 mg/kg twice weekly, week 4, saline 510
[10] = 0 min post-glucose challenge (fasted)
[11] = week 0 (prior to treatment), saline 339

| Sequence | Liver Triglycerides [1, 5] | Liver Glycogen [1, 6] | fed plasma glucose (db/db mice; [7]) | fed plasma glucose (db/db mice; [8]) | fed plasma glucose (db/db mice; [9]) | Glucose-6-phosphatase translocase mRNA levels in liver, reduction compared to saline [2] | plasma glucose, OGTT (ob/ob mice [3]; [10]) | plasma glucose, OGTT (ob/ob mice [3]; 30 min post-glucose challenge) | plasma glucose, OGTT (ob/ob mice [3]; 60 min post-glucose challenge) | plasma glucose, OGTT (ob/ob mice [3]; 90 min post-glucose challenge) | plasma glucose, OGTT (ob/ob mice [3]; 120 min post-glucose challenge) | fed plasma glucose (ob/ob mice [4]; [11]) | fed plasma glucose (ob/ob mice [4]; week 2, saline 401) | fasted plasma glucose (ob/ob mice [4]) | fed plasma glucose (ob/ob mice [4]; week 4, saline 372) | further results |
| --- | --- | --- | --- | --- | --- | --- | --- | --- | --- | --- | --- | --- | --- | --- | --- | --- |
| CCTTCCCTGAAGGTTCCTCC (chemistry not given here) [ISIS 141923, scrambled control oligonucleotide, negative control, reference compound] | 30 mg/g | 43 mg/g | approximately 287 mg/dL | ~456 mg/dL | ~510 mg/dL | about 4% |  |  |  |  |  |  |  |  |  |  |
| CTGCTAGCCTCTGGATTTGA (chemistry not given here) [ISIS 116847, positive control oligonucleotide targeted to mouse PTEN, reference compound] | 67 mg/g | 39 mg/g | approximately 282 mg/dL | ~291 mg/dL | ~224 mg/dL | about 8% | 286 mg/dL | 290 mg/dL | 238 mg/dL | 229 mg/dL | 194 mg/dL | approximately 339 mg/dL | ~230 mg/dL | approximately 286 mg/dL | ~188 mg/dL |  |
| GCTCCATAGCGAGGACTCGA (chemistry not given here) [ISIS 148985] |  | 47 mg/g | approximately 289 mg/dL | ~394 mg/dL | ~443 mg/dL | approximately 19% | 293 mg/dL | 489 mg/dL | 433 mg/dL | 331 mg/dL | 305 mg/dL | approximately 348 mg/dL | ~315 mg/dL | approximately 293 mg/dL | ~241 mg/dL |  |
| TATACAAGTCGGTTTGCCCT (chemistry not given here) [ISIS 149008] | 58 mg/g | 45 mg/g | approximately 286 mg/dL | ~359 mg/dL | ~299 mg/dL | approximately 82% | 237 mg/dL | 372 mg/dL | 276 mg/dL | 238 mg/dL | 214 mg/dL | approximately 344 mg/dL | ~249 mg/dL | approximately 237 mg/dL | ~153 mg/dL | Liver Glycogen ([1]; dose 12.5 mg/mL [sic]): 45 mg/g; Liver Triglycerides ([1]; dose 12.5 mg/mL [sic]): 41 mg/g; Liver Glycogen ([1]; dose printed 6 mg/mL): 48 mg/g; Liver Triglycerides ([1]; dose printed 6 mg/mL): 33 mg/g; fed plasma glucose (db/db mice; 6.25 mg/kg twice weekly, week 0): approximately 289 mg/dL; fed plasma glucose (db/db mice; 6.25 mg/kg twice weekly, week 2): ~397 mg/dL; fed plasma glucose (db/db mice; 6.25 mg/kg twice weekly, week 4): ~478 mg/dL; fed plasma glucose (db/db mice; 12.5 mg/kg twice weekly, week 0): approximately 283 mg/dL; fed plasma glucose (db/db mice; 12.5 mg/kg twice weekly, week 2): ~411 mg/dL; fed plasma glucose (db/db mice; 12.5 mg/kg twice weekly, week 4): ~203 mg/dL; glucose tolerance (in words) (ob/ob mice [3]; OGTT): improved glucose tolerance |
